{"source": "ChEMBL document CHEMBL1649124", "about": "“Genetic variability among ampC genes from acinetobacter genomic species 3” (Antimicrob Agents Chemother, 2009)", "key": {"[1]": {"system": "Acinetobacter pittii", "assay": "Ratio of MIC for Acinetobacter genomosp. 3 isolate 103 to MIC for Acinetobacter genomosp. 3 isolate 103 in presence of efflux pump inhibitor PAN", "type": "functional"}, "[2]": {"system": "Acinetobacter pittii", "assay": "Ratio of MIC for Acinetobacter genomosp. 3 isolate 103 to MIC for Acinetobacter genomosp. 3 isolate 103 in presence of efflux pump inhibitor CCCP", "type": "functional"}}, "data": [{"smiles": "C[C@@H](O)[C@H]1C(=O)N2C(C(=O)O)=C(S[C@@H]3CN[C@H](C(=O)N(C)C)C3)[C@H](C)[C@H]12", "note": "[MEROPENEM]", "values": [{"measurement": "Ratio", "setting": "[1]", "result": 4}, {"measurement": "Ratio", "setting": "[2]", "result": 3}]}]}
